# According to patent US7300946B2, “N-(substituted arylmethyl)-4-(disubstituted methyl) piperidines and pyridines” (Bayer CropScience AG, priority 2002, dated 2007):
# Test system: tobacco budworm (Heliothis virescens [Fabricius])
# Test: surface-treated diet test against the tobacco budworm
# Assay type: in vivo
# Settings: tobacco budworm second instar larvae, surface-treated diet, 0.25 millimoles of candidate insecticide on the surface of the diet, five-day exposure; for Percent Mortality: compared to total number of insects infested; for Percent Growth Inhibition: inhibition of insect weight relative to untreated controls
# Procedure, shortened: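 Wheat germ artificial diet surface-treated with 40 µL of 50 mM DMSO stock diluted 1:7 in 1:1 water/acetone (0.25 millimolar on diet), or sub-multiples for rate tests. One second-instar larva per well, 25° C, 60% RH, 5 days; percent weight inhibition vs DMSO controls and percent mortality.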
Compound,Percent Mortality,Percent Growth Inhibition
CCn1nnc(-c2ccc(CN3CCC(C(OC(=O)Nc4cc(F)cc(F)c4)c4cc(F)cc(F)c4)CC3)cc2)n1 (centres unmarked) [Compound 593],100%,100%
CCn1nnc(-c2ccc(CN3CCC(C(OC(=O)Nc4ccc(C(F)(F)F)cc4)c4cc(F)cc(F)c4)CC3)cc2)n1 (centres unmarked) [Compound 594],100%,100%
CCn1nnc(-c2ccc(CN3CCC(C(OC(=O)Nc4ccc(Cl)cc4)c4ccc(C)cc4)CC3)cc2)n1 (centres unmarked) [Compound 595],100%,100%
CCn1nnc(-c2ccc(CN3CCC(C(OC(=O)Nc4ccc(Cl)c(Cl)c4)c4ccc(C)cc4)CC3)cc2)n1 (centres unmarked) [Compound 596],100%,100%
CCn1nnc(-c2ccc(CN3CCC(C(OC(=O)Nc4ccc(F)c(F)c4)c4ccc(C)cc4)CC3)cc2)n1 (centres unmarked) [Compound 597],100%,100%
CCn1nnc(-c2ccc(CN3CCC(C(OC(=O)Nc4cc(F)cc(F)c4)c4ccc(C)cc4)CC3)cc2)n1 (centres unmarked) [Compound 598],100%,100%
CCn1nnc(-c2ccc(CN3CCC(C(OC(=O)Nc4cccc(C(F)(F)F)c4)c4ccc(C)cc4)CC3)cc2)n1 (centres unmarked) [Compound 599],100%,100%
CCn1nnc(-c2ccc(CN3CCC(C(OC(=O)Nc4ccc(C(F)(F)F)cc4)c4ccc(C)cc4)CC3)cc2)n1 (centres unmarked) [Compound 600],100%,100%
CCn1nnc(-c2ccc(CN3CCC(C(OC(=O)Nc4ccc(Cl)cc4)c4ccc(OC)cc4)CC3)cc2)n1 (centres unmarked) [Compound 601],100%,100%
CCn1nnc(-c2ccc(CN3CCC(C(OC(=O)Nc4ccc(Cl)c(Cl)c4)c4ccc(OC)cc4)CC3)cc2)n1 (centres unmarked) [Compound 602],100%,100%
CCn1nnc(-c2ccc(CN3CCC(C(OC(=O)Nc4ccc(F)c(F)c4)c4ccc(OC)cc4)CC3)cc2)n1 (centres unmarked) [Compound 603],100%,100%
CCn1nnc(-c2ccc(CN3CCC(C(OC(=O)Nc4cc(F)cc(F)c4)c4ccc(OC)cc4)CC3)cc2)n1 (centres unmarked) [Compound 604],100%,100%
CCn1nnc(-c2ccc(CN3CCC(C(OC(=O)Nc4cccc(C(F)(F)F)c4)c4ccc(OC)cc4)CC3)cc2)n1 (centres unmarked) [Compound 605],100%,100%
CCn1nnc(-c2ccc(CN3CCC(C(OC(=O)Nc4ccc(C(F)(F)F)cc4)c4ccc(OC)cc4)CC3)cc2)n1 (centres unmarked) [Compound 606],100%,100%
CCn1nnc(-c2ccc(CN3CCC(C(OC(=O)Nc4ccc(-c5ccccc5)cc4)c4ccc(OC)cc4)CC3)cc2)n1 (centres unmarked) [Compound 607],100%,100%
CCn1nnc(-c2ccc(CN3CCC(C(OC(=O)Nc4ccc(Cl)cc4)c4ccc(OC)c(OC)c4)CC3)cc2)n1 (centres unmarked) [Compound 608],83%,100%
CCn1nnc(-c2ccc(CN3CCC(C(OC(=O)Nc4cc(F)cc(F)c4)c4ccc(OC)c(OC)c4)CC3)cc2)n1 (centres unmarked) [Compound 609],33%,100%
CCn1nnc(-c2ccc(CN3CCC(C(OC(=O)Nc4cc(F)cc(F)c4)c4ccc(C(F)(F)F)cc4)CC3)cc2)n1 (centres unmarked) [Compound 610],100%,100%
CCn1nnc(-c2ccc(CN3CCC(C(OC(=O)Nc4ccc(Cl)cc4)c4ccc(-c5ccccc5)cc4)CC3)cc2)n1 (centres unmarked) [Compound 611],83%,100%
CCn1nnc(-c2ccc(CN3CCC(C(OC(=O)Nc4ccc(Cl)c(Cl)c4)c4ccc(-c5ccccc5)cc4)CC3)cc2)n1 (centres unmarked) [Compound 612],0%,48%
CCn1nnc(-c2ccc(CN3CCC(C(OC(=O)Nc4ccc(F)c(F)c4)c4ccc(-c5ccccc5)cc4)CC3)cc2)n1 (centres unmarked) [Compound 613],83%,100%
CCn1nnc(-c2ccc(CN3CCC(C(OC(=O)Nc4cc(F)cc(F)c4)c4ccc(-c5ccccc5)cc4)CC3)cc2)n1 (centres unmarked) [Compound 614],16%,99%
CCn1nnc(-c2ccc(CN3CCC(C(OC(=O)Nc4ccc(C(F)(F)F)cc4)c4ccc(-c5ccccc5)cc4)CC3)cc2)n1 (centres unmarked) [Compound 615],17%,72%
CCn1nnc(-c2ccc(CN3CCC(C(OC(=O)Nc4ccc(Cl)cc4)c4ccc(Oc5ccccc5)cc4)CC3)cc2)n1 (centres unmarked) [Compound 616],100%,100%
CCn1nnc(-c2ccc(CN3CCC(C(OC(=O)Nc4ccc(Cl)c(Cl)c4)c4ccc(Oc5ccccc5)cc4)CC3)cc2)n1 (centres unmarked) [Compound 617],0%,14%

Compound,Percent Mortality,Percent Growth Inhibition
CCn1nnc(-c2ccc(CN3CCC(C(OC(=O)Nc4ccc(F)c(F)c4)c4ccc(Oc5ccccc5)cc4)CC3)cc2)n1 (centres unmarked) [Compound 618],100%,100%
CCn1nnc(-c2ccc(CN3CCC(C(OC(=O)Nc4cc(F)cc(F)c4)c4ccc(Oc5ccccc5)cc4)CC3)cc2)n1 (centres unmarked) [Compound 619],17%,100%
CCn1nnc(-c2ccc(CN3CCC(C(OC(=O)Nc4cccc(C(F)(F)F)c4)c4ccc(Oc5ccccc5)cc4)CC3)cc2)n1 (centres unmarked) [Compound 620],0%,29%
CCn1nnc(-c2ccc(CN3CCC(C(OC(=O)Nc4ccc(-c5ccccc5)cc4)c4ccc(Oc5ccccc5)cc4)CC3)cc2)n1 (centres unmarked) [Compound 621],0%,4%
CCn1nnc(-c2ccc(CN3CCC(C(OC(=O)Nc4ccc(Oc5ccccc5)cc4)c4ccc(Oc5ccccc5)cc4)CC3)cc2)n1 (centres unmarked) [Compound 622],0%,4%
O=C(Nc1ccc(Cl)cc1)OC(c1ccc(C(F)(F)F)cc1)C1CCN(Cc2ccc(-c3ccccn3)cc2)CC1 (centres unmarked) [Compound 627],100%,100%
O=C(Nc1cc(F)cc(F)c1)OC(c1ccc(C(F)(F)F)cc1)C1CCN(Cc2ccc(-c3ccccn3)cc2)CC1 (centres unmarked) [Compound 628],100%,100%
O=C(Nc1ccc(Cl)cc1)OC(c1ccc(Cl)cc1)C1CCN(Cc2ccc(Oc3ccccn3)cc2)CC1 (centres unmarked) [Compound 629],100%,100%
O=C(Nc1ccc(F)cc1)OC(c1ccc(Cl)cc1)C1CCN(Cc2ccc(Oc3ccccn3)cc2)CC1 (centres unmarked) [Compound 630],100%,100%
O=C(Nc1cc(F)cc(F)c1)OC(c1ccc(Cl)cc1)C1CCN(Cc2ccc(Oc3ccccn3)cc2)CC1 (centres unmarked) [Compound 631],100%,100%
Cc1cc(C)cc(NC(=O)OC(c2ccc(Cl)cc2)C2CCN(Cc3ccc(Oc4ccccn4)cc3)CC2)c1 (centres unmarked) [Compound 632],100%,100%
COc1cc(NC(=O)OC(c2ccc(Cl)cc2)C2CCN(Cc3ccc(Oc4ccccn4)cc3)CC2)cc(OC)c1 (centres unmarked) [Compound 633],50%,100%
O=C(Nc1cccc(C(F)(F)F)c1)OC(c1ccc(Cl)cc1)C1CCN(Cc2ccc(Oc3ccccn3)cc2)CC1 (centres unmarked) [Compound 634],100%,100%
O=C(Nc1ccc(C(F)(F)F)cc1)OC(c1ccc(Cl)cc1)C1CCN(Cc2ccc(Oc3ccccn3)cc2)CC1 (centres unmarked) [Compound 635],100%,100%
CN(C(=O)OC(c1ccc(Cl)cc1)C1CCN(Cc2ccc(Oc3ccccn3)cc2)CC1)c1ccc(C(F)(F)F)cc1 (centres unmarked) [Compound 636],100%,100%
CCN(C(=O)OC(c1ccc(Cl)cc1)C1CCN(Cc2ccc(Oc3ccccn3)cc2)CC1)c1ccc(C(F)(F)F)cc1 (centres unmarked) [Compound 637],100%,100%
COC(=O)c1cccc(NC(=O)OC(c2ccc(Cl)cc2)C2CCN(Cc3ccc(Oc4ccccn4)cc3)CC2)c1 (centres unmarked) [Compound 638],100%,100%
O=C(Nc1ccc(Cl)cc1)OC(c1ccc(F)cc1)C1CCN(Cc2ccc(Oc3ccccn3)cc2)CC1 (centres unmarked) [Compound 639],100%,100%
O=C(Nc1ccc(F)cc1)OC(c1ccc(F)cc1)C1CCN(Cc2ccc(Oc3ccccn3)cc2)CC1 (centres unmarked) [Compound 640],100%,100%
O=C(Nc1cc(F)cc(F)c1)OC(c1ccc(F)cc1)C1CCN(Cc2ccc(Oc3ccccn3)cc2)CC1 (centres unmarked) [Compound 641],100%,100%
O=C(Nc1cccc(C(F)(F)F)c1)OC(c1ccc(F)cc1)C1CCN(Cc2ccc(Oc3ccccn3)cc2)CC1 (centres unmarked) [Compound 642],100%,100%
O=C(Nc1ccc(C(F)(F)F)cc1)OC(c1ccc(F)cc1)C1CCN(Cc2ccc(Oc3ccccn3)cc2)CC1 (centres unmarked) [Compound 643],100%,100%
O=C(Nc1ccc(Cl)cc1)OC(c1ccc(Cl)c(Cl)c1)C1CCN(Cc2ccc(Oc3ccccn3)cc2)CC1 (centres unmarked) [Compound 645],100%,100%
O=C(Nc1ccc(F)cc1)OC(c1ccc(Cl)c(Cl)c1)C1CCN(Cc2ccc(Oc3ccccn3)cc2)CC1 (centres unmarked) [Compound 646],100%,100%
